Legend:
[1] = molecular target: 5-hydroxytryptamine receptor 2A (Homo sapiens, UniProt P28223)
Description: Binding affinity to 5HT2A receptor (unknown origin)

D(3) dopamine receptor = D(3) dopamine receptor (Homo sapiens, UniProt P35462)
Description: Binding affinity to dopamine D3 receptor (unknown origin)

[2] = molecular target: T1, 5-hydroxytryptamine receptor 2C (Homo sapiens, UniProt P28335)
T1 sequence (P28335 whole entry): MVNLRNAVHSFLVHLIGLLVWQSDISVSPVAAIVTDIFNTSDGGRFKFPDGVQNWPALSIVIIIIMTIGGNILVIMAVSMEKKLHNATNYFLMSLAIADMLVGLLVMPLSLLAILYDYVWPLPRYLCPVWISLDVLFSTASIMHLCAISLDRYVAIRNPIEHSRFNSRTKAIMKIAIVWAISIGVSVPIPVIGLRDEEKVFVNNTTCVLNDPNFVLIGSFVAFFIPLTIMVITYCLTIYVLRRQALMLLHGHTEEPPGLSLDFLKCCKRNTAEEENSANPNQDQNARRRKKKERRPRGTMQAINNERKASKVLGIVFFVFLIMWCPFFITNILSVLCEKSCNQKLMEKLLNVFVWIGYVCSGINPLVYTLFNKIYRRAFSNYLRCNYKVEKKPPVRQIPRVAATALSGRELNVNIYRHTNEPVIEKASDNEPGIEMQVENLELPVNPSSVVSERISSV
Description: Binding affinity to 5HT2C receptor (unknown origin)

D(2) dopamine receptor = D(2) dopamine receptor (Homo sapiens, UniProt P14416)
Description: Binding affinity to dopamine D2 receptor (unknown origin)

[3] = molecular target: T2, 5-hydroxytryptamine receptor 1A (Homo sapiens, UniProt P08908)
T2 sequence (P08908 whole entry): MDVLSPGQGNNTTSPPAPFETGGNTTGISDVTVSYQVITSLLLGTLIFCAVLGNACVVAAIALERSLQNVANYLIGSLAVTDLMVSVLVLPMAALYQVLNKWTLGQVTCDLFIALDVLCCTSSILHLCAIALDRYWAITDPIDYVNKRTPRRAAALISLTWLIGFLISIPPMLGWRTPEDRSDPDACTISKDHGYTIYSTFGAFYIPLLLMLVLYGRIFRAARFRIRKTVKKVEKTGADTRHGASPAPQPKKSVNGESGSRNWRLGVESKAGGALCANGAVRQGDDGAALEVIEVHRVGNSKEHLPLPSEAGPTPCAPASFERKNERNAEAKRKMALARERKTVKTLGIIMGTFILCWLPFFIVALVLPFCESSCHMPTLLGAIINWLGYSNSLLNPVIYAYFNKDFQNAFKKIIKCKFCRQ
Description: Binding affinity to 5HT1A receptor (unknown origin)

Mus musculus [4] = organism: Mus musculus; test: animal or person; conditions: NMRI, sc; for minimal effective dose: read-out: MED
Description: Antipsychotic-like activity in sc dosed NMRI mouse assessed as reduction in methamphetamine-induced locomotor activity dosed 15 to 30 mins before administration of methamphetamine measured for 60 mins

Mus musculus [5] = organism: Mus musculus; conditions: in vivo, sc, 0.5 h
Description: Effect on spontaneous exploratory locomotor activity in sc dosed NMRI mouse measured for 30 mins with activity counts each 5 mins

Mus musculus [6] = organism: Mus musculus; test: animal or person; conditions: NMRI, sc, read-out: MED
Description: Antipsychotic-like activity in sc dosed NMRI mouse assessed as reduction in PCP-induced locomotor activity dosed 15 to 30 mins before administration of methamphetamine measured for 60 mins

Mus musculus [7] = test: Toxicity in NMRI mouse assessed as induction of tremors at 30 mg/kg, sc dosed 30 mins before test; format: organism-based; design: dose 30 mg/kg, route subcutaneous; conditions: in vivo, 0.5 h
Mus musculus [8] = test: Antipsychotic-like activity in sc dosed NMRI mouse assessed as reduction in MK801-induced locomotor activity dosed 15 to 30 mins before administration of MK801 measured for 60 mins; format: functional; conditions: read-out: MED
Mus musculus [9] = test: Antipsychotic-like activity in orally dosed NMRI mouse assessed as reduction in MK801-induced locomotor activity dosed 15 to 30 mins before administration of MK801 measured for 60 mins; format: functional; conditions: po, read-out: MED
Mus musculus [10] = test: Effect on spontaneous exploratory locomotor activity in orally dosed NMRI mouse measured for 30 mins with activity counts each 5 mins; format: ADME, organism-based; conditions: in vivo, po, 0.5 h

Sequence of D(3) dopamine receptor (P35462 whole entry): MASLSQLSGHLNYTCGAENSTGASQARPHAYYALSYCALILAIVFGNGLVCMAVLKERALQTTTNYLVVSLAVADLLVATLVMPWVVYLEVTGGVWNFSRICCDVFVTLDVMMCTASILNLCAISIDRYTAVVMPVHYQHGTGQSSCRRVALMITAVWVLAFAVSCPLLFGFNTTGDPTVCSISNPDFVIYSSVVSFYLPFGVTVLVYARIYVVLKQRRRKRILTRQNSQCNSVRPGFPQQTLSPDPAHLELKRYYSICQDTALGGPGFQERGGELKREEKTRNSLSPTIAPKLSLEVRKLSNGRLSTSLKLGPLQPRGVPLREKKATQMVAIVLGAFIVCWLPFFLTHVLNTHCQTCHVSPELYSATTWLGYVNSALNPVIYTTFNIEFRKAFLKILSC
Sequence of 5-hydroxytryptamine receptor 2A (P28223 whole entry): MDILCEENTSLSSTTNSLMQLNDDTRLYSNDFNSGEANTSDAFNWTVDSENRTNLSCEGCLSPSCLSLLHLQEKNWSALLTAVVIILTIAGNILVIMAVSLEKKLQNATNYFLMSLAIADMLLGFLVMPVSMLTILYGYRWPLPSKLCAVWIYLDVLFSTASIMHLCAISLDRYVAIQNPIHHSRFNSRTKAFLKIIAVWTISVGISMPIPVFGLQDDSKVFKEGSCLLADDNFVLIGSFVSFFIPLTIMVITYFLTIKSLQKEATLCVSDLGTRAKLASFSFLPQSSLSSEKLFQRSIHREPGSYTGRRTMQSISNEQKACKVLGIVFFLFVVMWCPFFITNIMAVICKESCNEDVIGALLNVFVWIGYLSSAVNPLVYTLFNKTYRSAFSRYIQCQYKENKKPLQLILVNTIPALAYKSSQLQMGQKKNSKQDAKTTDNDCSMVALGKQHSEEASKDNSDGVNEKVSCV
Sequence of D(2) dopamine receptor (P14416 whole entry): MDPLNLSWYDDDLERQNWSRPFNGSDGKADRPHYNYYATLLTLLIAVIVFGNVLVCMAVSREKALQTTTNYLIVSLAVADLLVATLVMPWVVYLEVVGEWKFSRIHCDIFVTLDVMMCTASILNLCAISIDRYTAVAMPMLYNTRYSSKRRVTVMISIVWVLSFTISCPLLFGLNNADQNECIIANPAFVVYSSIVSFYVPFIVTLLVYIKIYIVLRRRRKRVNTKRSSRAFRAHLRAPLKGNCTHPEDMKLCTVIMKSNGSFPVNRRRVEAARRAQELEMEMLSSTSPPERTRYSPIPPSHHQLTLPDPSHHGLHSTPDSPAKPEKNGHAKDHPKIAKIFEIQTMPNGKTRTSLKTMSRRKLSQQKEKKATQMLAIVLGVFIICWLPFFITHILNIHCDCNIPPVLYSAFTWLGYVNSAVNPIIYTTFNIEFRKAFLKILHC

Compound | Ki [1] [nM] | Ki (D(3) dopamine receptor) [nM] | Ki [2] [nM] | Ki (D(2) dopamine receptor) [nM] | Ki [3] [nM] | MED (Mus musculus [5]) [mg/kg] | MED (Mus musculus [10]) [mg/kg] | minimal effective dose (Mus musculus [4]) [mg/kg] | minimal effective dose (Mus musculus [6]) [mg/kg] | Activity (Mus musculus [7]) | minimal effective dose (Mus musculus [8]) [mg/kg] | minimal effective dose (Mus musculus [9]) [mg/kg] | ED50 (Mus musculus [4]) [mg/kg] | ED50 (Mus musculus [5]) [mg/kg]
Cc1cccc(N2CCN(CCCCNC(=O)c3cc4ccccc4o3)CC2)n1 | 27 | 24 | 61 | > 1000 | 2 | – | – | – | – | – | – | – | – | –
O=C(NCCCCN1CCN(c2ccccc2)CC1)c1cccnc1 | 216 | 62 | > 1000 | > 1000 | 85 | – | – | – | – | – | – | – | – | –
COc1cccc(N2CCN(CCCCNC(=O)c3ccccn3)CC2)n1 | 140 | 200 | 43 | > 1000 | 8 | > 3 | – | 3 | 3 | – | – | – | – | –
O=C(NCCCCN1CCN(c2cnc3ccccc3c2)CC1)c1ccccc1 | > 1000 | 40 | > 1000 | 1 | > 1000 | – | – | – | – | – | – | – | – | –
O=C(NCCCCN1CCN(c2ncccn2)CC1)c1cc2ccccc2cn1 | 1230 | 204 | > 1000 | > 1000 | 67 | – | – | – | – | – | – | – | – | –
O=C(NCCCCN1CCN(c2ccccc2)CC1)c1ccccn1 | 100 | 144 | > 1000 | > 1000 | 52 | 3 | – | 1 | > 3 | – | – | – | – | –
O=C(NCCCCN1CCN(c2ccc(F)cc2)CC1)c1cc2ccccc2cn1 | 8 | 16 | 300 | > 1000 | 73 | – | 60 | – | – | – | – | 60 | – | –
O=C(NCCCCN1CCN(c2ccccc2)CC1)c1ccc2ccccc2n1 | 98 | 61 | 475 | > 1000 | 94 | – | – | – | – | – | – | – | – | –
O=C(NCCCCN1CCN(c2ccc(O)cc2)CC1)c1cc2ccccc2cn1 | 17 | 24 | 400 | > 1000 | > 1000 | – | – | – | – | – | – | – | – | –
O=C(NCCCCN1CCN(c2ccccn2)CC1)c1ccc2ccccc2n1 | 69 | 186 | > 1000 | > 1000 | 24 | – | – | – | – | – | – | – | – | –
O=C(NCCCCN1CCN(c2ccccc2)CC1)c1cc2ccccc2cn1 | 40 | 12 | > 1000 | > 1000 | 26 | 10 | – | ≤ 1 | 3 | – | 3 | – | – | –
Cc1cccc(N2CCN(CCCCNC(=O)c3cc4ccccc4o3)CC2)c1C | 3.6 | 0.4 | 17 | 85 | 4 | – | – | – | – | Toxic | 30 | – | – | –
O=C(CCCN1CCC(O)(c2ccc(Cl)cc2)CC1)c1ccc(F)cc1 [HALOPERIDOL] | – | – | – | – | – | – | – | – | – | – | – | – | 0.09 | 0.08
Cc1cccc(N2CCN(CCCCNC(=O)c3ccccn3)CC2)n1 | 240 | > 1000 | > 1000 | > 1000 | 3 | – | – | – | – | – | – | – | – | –
O=C(NCCCCN1CCN(Cc2ccccc2)CC1)c1cc2ccccc2o1 | > 1000 | 560 | > 1000 | > 1000 | > 1000 | – | – | – | – | – | – | – | – | –
Cc1cccc(N2CCN(CCCCNC(=O)c3cc4ccccc4cn3)CC2)n1 | 28 | 46 | 57 | > 1000 | 2 | – | – | – | – | – | – | – | – | –
O=C(NCCCCN1CCN(c2cccc3ccccc23)CC1)c1ccccc1 | 3 | 0.9 | 6 | 58 | 0.7 | – | – | – | – | – | – | – | – | –
O=C(NCCCCN1CCN(c2ccccc2F)CC1)c1cc2ccccc2o1 | 18 | 0.3 | 79 | 76 | 15 | – | – | – | – | – | – | – | – | –
O=C(NCCCCN1CCN(c2ccccn2)CC1)c1cc2ccccc2cn1 | 822 | 41 | 1350 | 5600 | 16 | – | – | – | – | – | – | – | – | –
O=C(NCCCCN1CCN(c2cnc3ccccc3c2)CC1)c1cc2ccccc2cn1 | 1000 | 14 | 479 | > 1000 | > 1000 | – | – | – | – | – | – | – | – | –
COc1cccc(N2CCN(CCCCNC(=O)c3ccccc3)CC2)n1 | 110 | 55 | > 1000 | > 1000 | 6 | 10 | – | 0.3 | 10 | – | 3 | – | – | –

More lines, main results first:

Ki [1] [nM] | Ki (D(3) dopamine receptor) [nM] | Ki [2] [nM] | Ki (D(2) dopamine receptor) [nM] | Ki [3] [nM] | MED (Mus musculus [5]) [mg/kg] | MED (Mus musculus [10]) [mg/kg] | Compound | minimal effective dose (Mus musculus [4]) [mg/kg] | minimal effective dose (Mus musculus [6]) [mg/kg] | Activity (Mus musculus [7]) | minimal effective dose (Mus musculus [8]) [mg/kg] | minimal effective dose (Mus musculus [9]) [mg/kg] | ED50 (Mus musculus [4]) [mg/kg] | ED50 (Mus musculus [5]) [mg/kg]
311 | 1.7 | 311 | 219 | 10 | – | – | COc1cccc(N2CCN(CCCCNC(=O)c3cc4ccccc4n3C)CC2)c1 | – | – | – | – | – | – | –
5.1 | 159 | 73.4 | > 1000 | 43 | – | – | Cc1cccc(N2CCN(CCCCNC(=O)[C@@H]3CCc4ccccc4N3)CC2)c1 | – | – | – | – | – | – | –
50 | 73 | > 1000 | > 1000 | 9.9 | – | – | O=C(NCCCCN1CCN(c2ccccc2)CC1)[C@H]1CCc2ccccc2N1 | – | – | – | – | – | – | –
70 | 31 | 155 | > 1000 | 26 | – | – | COc1cccc(N2CCN(CCCCNC(=O)c3ccc4ccccc4n3)CC2)c1 | – | – | – | – | – | – | –
15.3 | – | 206 | – | 11.9 | – | – | Cc1cccc(N2CCN(CCCCNC(=O)c3cc4ccccc4o3)CC2)c1 | – | – | – | – | – | – | –
238 | 27 | > 1000 | > 1000 | 44 | – | – | COc1cccc(N2CCN(CCCCNC(=O)c3cccc(C)n3)CC2)c1 | – | – | – | – | – | – | –
40 | 8.8 | 173 | > 1000 | 17 | – | – | COc1cccc(N2CCN(CCCCNC(=O)c3cc4ccccc4o3)CC2)c1 | – | – | – | – | – | – | –
17 | 53 | 74 | > 1000 | 18 | 10 | – | Cc1cccc(N2CCN(CCCCNC(=O)c3ccc4ccccc4n3)CC2)c1 | ≤ 1 | > 10 | Toxic | 10 | – | – | –
77 | 122 | 450 | 3410 | 117 | – | – | Cc1cccc(N2CCN(CCCCNC(=O)[C@H]3CCc4ccccc4N3)CC2)c1 | – | – | – | – | – | – | –
22 | 45 | > 1000 | > 1000 | 85 | – | – | O=C(NCCCCN1CCN(c2ccccc2)CC1)[C@@H]1CCc2ccccc2N1 | – | – | – | – | – | – | –
83 | 73 | > 1000 | > 1000 | 3 | > 3 | – | Cc1cccc(N2CCN(CCCCNC(=O)c3ccccc3)CC2)n1 | 1 | > 3 | – | – | – | – | –
4 | 0.2 | 22 | 53 | 1.9 | – | – | O=C(NCCCCN1CCN(c2cccc(C(F)(F)F)c2)CC1)c1cc2ccccc2[nH]1 | – | – | – | – | – | – | –
11 | 3 | 230 | 160 | 11 | – | – | O=C(NCCCCN1CCN(c2cccc(F)c2)CC1)c1cc2ccccc2cn1 | – | – | – | – | – | – | –
179 | 214 | > 1000 | > 1000 | 36 | – | – | COc1cccc(N2CCN(CCCCNC(=O)c3ccccn3)CC2)c1 | – | – | – | – | – | – | –
164 | 40 | 602 | > 1000 | 59 | – | – | COc1cccc(N2CCN(CCCCNC(=O)c3c[nH]c4ccccc34)CC2)c1 | – | – | – | – | – | – | –
